Results published in patent publication US9834512B2, “(22E)-2-methylene-26,27-cyclo-22-dehydro-1α-hydroxy-19-norvitamin D3 derivatives” (WISCONSIN ALUMNI RESEARCH FOUNDATION, priority 2011, dated 2017).
Entries after “also recorded” stand apart in the source; their conditions may differ. Read-outs that look alike come from different tables or passages of the source.

Key:
Sprague-Dawley rats [1] = experiment: Intestinal calcium transport (everted gut sac); format: in vivo, rat; conditions: for Intestinal calcium transport activity compared with native hormone: rat, intraperitoneal; for Intestinal calcium transport activity at very high doses: very high doses (e.g., 2340-2600 pmol)
Protocol: (§1) Male, weanling Sprague-Dawley rats were placed on Diet 11 (0.47% Ca) diet+AEK oil for one week followed by Diet 11 (0.02% Ca)+AEK oil for 3 weeks. The rats were then switched to a diet containing 0.47% Ca for one week followed by two weeks on a diet containing 0.02% Ca. Dose administration began during the last week on 0.02% calcium diet. Four consecutive intraperitoneal doses were given approximately 24 hours apart. Twenty-four hours after the last dose, blood was collected from the severed neck and the concentration of serum calcium determined as a measure of bone calcium mobilization. The first 10 cm of the intestine was also collected for intestinal calcium transport analysis using the everted gut sac method.
(§2) Antagonism was tested by administering a combination of 1,25(OH)2D3 and the putative antagonist to the animal simultaneously.

HL-60 cells = experiment: HL-60 differentiation (nitro blue tetrazolium reduction); format: cell-based, human; conditions: for EC50: Homo sapiens, HL-60; for HL-60 cell differentiation activity: compound alone; for HL-60 Differentiation (Relative Activity): native hormone value / working example value, same assay
Protocol: The study drugs were dissolved in ethanol and the concentrations determined using UV spectrophotometry. Serial dilutions were prepared so that a range of drug concentrations could be tested without changing the final concentration of ethanol (≦0.2%) present in the cell cultures.
Human promyelocytic leukemia (HL60) cells were grown in RPMI-1640 medium containing 10% fetal bovine serum. The cells were incubated at 37° C. in the presence of 5% CO2.
HL60 cells were plated at 1.2×10^5 cells/ml. Eighteen hours after plating, cells in duplicate were treated with the drug. Four days later, the cells were harvested and a nitro blue tetrazolium reduction assay was performed (Collins et al., 1979; J. Exp. Med. 149:969-974). The percentage of differentiated cells was determined by counting a total of 200 cells and recording the number that contained intracellular black-blue formazan deposits. Verification of differentiation to monocytic cells was determined by measuring phagocytic activity (data not shown).
Antagonism was tested by adding a combination of 1,25(OH)2D3 and the putative antagonist in the same well keeping the final ethanol concentration the same.

[2] = system: 24-hydroxylase (24OHase) gene promoter; experiment: In vitro 24-hydroxylase transcription assay (luciferase reporter, ROS 17/2.8 bone cells); format: cell-based; conditions: for Antagonism of gene transactivation stimulated by native hormone: combined with 1,25(OH)2D3; for 24OHase Transcription (Relative Activity): native hormone value / working example value, same assay
Protocol: Transcription activity was measured in ROS 17/2.8 (bone) cells that were stably transfected with a 24-hydroxylase (24OHase) gene promoter upstream of a luciferase reporter gene (Arbour et al., 1998). Cells were given a range of doses. Sixteen hours after dosing, the cells were harvested and luciferase activities were measured using a luminometer. RLU=relative luciferase units.

Sprague-Dawley rats [3] = experiment: Bone calcium mobilization (serum calcium); format: in vivo, rat; conditions: for Bone calcium mobilization activity: rat, intraperitoneal, at the doses tested
Protocol: as §1, §2

vitamin D receptor [4] = target: T1, vitamin D receptor (Rattus norvegicus, UniProt P13053); experiment: Competitive vitamin D receptor binding; conditions: for Competitive VDR Binding (Relative Activity): native hormone value / working example value, same assay; for Competitive VDR Binding (Relative Activity) / Ki: present compounds; for Ki: read-out: Competitive VDR Binding, Ki; for Binding to the nuclear vitamin D receptor compared with native hormone: versus 1,25(OH)2D3; for VDR binding activity relative to CN-67 (ratio of relative activities): versus CN-67
T1 construct: Full-length recombinant rat receptor was expressed in E. coli; His tag (C); made in house; host or cells: E. coli BL21(DE3) Codon Plus RIL
T1 sequence (P13053 1-423): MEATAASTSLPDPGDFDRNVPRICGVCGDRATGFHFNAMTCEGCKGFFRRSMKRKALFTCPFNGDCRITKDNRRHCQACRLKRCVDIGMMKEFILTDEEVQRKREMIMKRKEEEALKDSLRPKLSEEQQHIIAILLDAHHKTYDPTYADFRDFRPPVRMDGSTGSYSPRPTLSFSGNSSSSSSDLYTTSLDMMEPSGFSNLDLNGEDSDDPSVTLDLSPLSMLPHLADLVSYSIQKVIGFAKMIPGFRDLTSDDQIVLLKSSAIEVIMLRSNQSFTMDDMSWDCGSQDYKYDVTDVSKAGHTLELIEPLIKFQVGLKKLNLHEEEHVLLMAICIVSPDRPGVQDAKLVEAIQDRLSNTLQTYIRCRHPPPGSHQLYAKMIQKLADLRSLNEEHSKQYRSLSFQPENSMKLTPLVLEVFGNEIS
Protocol: Full-length recombinant rat receptor was expressed in E. coli BL21(DE3) Codon Plus RIL cells and purified to homogeneity using two different column chromatography systems. The first system was a nickel affinity resin that utilizes the C-terminal histidine tag on this protein. The protein that was eluted from this resin was further purified using ion exchange chromatography (S-Sepharose Fast Flow). Aliquots of the purified protein were quick frozen in liquid nitrogen and stored at −80° C. until use. For use in binding assays, the protein was diluted in TEDK50 (50 mM Tris, 1.5 mM EDTA, pH 7.4, 5 mM DTT, 150 mM KCl) with 0.1% Chaps detergent. The receptor protein and ligand concentration was optimized such that no more than 20% of the added radiolabeled ligand was bound to the receptor.
Unlabeled ligands were dissolved in ethanol and the concentrations determined using UV spectrophotometry (1,25(OH)2D3: molar extinction coefficient=18,200 and λmax=265 nm; Analogs: molar extinction coefficient=42,000 and λmax=252 nm). Radiolabeled ligand (^3H-1,25(OH)2D3, ˜159 Ci/mmole) was added in ethanol at a final concentration of 1 nM.
Radiolabeled and unlabeled ligands were added to 100 mcl of the diluted protein at a final ethanol concentration of ≦10%, mixed and incubated overnight on ice to reach binding equilibrium. The following day, 100 mcl of hydroxylapatite slurry (50%) was added to each tube and mixed at 10-minute intervals for 30 minutes. The hydroxylapaptite was collected by centrifugation and then washed three times with Tris-EDTA buffer (50 mM Tris, 1.5 mM EDTA, pH 7.4) containing 0.5% Titron X-100. After the final wash, the pellets were transferred to scintillation vials containing 4 ml of Biosafe II scintillation cocktail, mixed and placed in a scintillation counter. Total binding was determined from the tubes containing only radiolabeled ligand.

vitamin D receptor [5] = target: T1, vitamin D receptor; conditions: compounds of U.S. Pat. No. 7,915,242; read-out: Competitive VDR Binding, Ki; cited from earlier work
[6] = combined with 1,25(OH)2D3, systemic administration
[7] = when administered with 1,25(OH)2D3, present compounds

EC50 (HL-60 cells; present compounds) [nM] | EC50 ([2]; present compounds) [nM] | Competitive VDR Binding (Relative Activity) (vitamin D receptor [4]) | Ki (vitamin D receptor [4]) [nM] | VDR binding activity relative to CN-67 (ratio of relative activities) (vitamin D receptor [4]) | SMILES | Intestinal calcium transport activity compared with native hormone (Sprague-Dawley rats [1]) | Intestinal calcium transport activity at very high doses (Sprague-Dawley rats [1]) | HL-60 cell differentiation activity (HL-60 cells) | HL-60 Differentiation (Relative Activity) (HL-60 cells; present compounds) | Antagonism of gene transactivation stimulated by native hormone [2] | 24OHase Transcription (Relative Activity) ([2]; present compounds) | Bone calcium mobilization activity (Sprague-Dawley rats [3]) | Binding to the nuclear vitamin D receptor compared with native hormone (vitamin D receptor [4]) | Ki (vitamin D receptor [5]) [nM] | other results
> 1000 | 6 | 1.0 | 0.1 | ≈ 67 times | C=C1[C@H](O)CC(=C/C=C2\CCC[C@]3(C)[C@@H]([C@H](C)/C=C/[C@@H](O)C4(C(=O)SCCCC)CC4)CC[C@@H]23)C[C@H]1O [AS-51, (20R,22E,24R)-25-carbobutylsulfanyl-2-methylene-26,27-cyclo-22-dehydro-1α,24-dihydroxy-19-norvitamin D3] | somewhat less active than 1,25(OH)2D3 in stimulating intestinal calcium transport at very high doses; also recorded: potency less than that of the native hormone at low doses | increased intestinal calcium transport activity at very high doses | does not effectively promote cellular differentiation | 0.002 | can inhibit gene transactivation stimulated by the native hormone; also recorded: antagonistic activity; also recorded: inhibits gene transactivation stimulated by the native hormone | 0.02 | essentially inactive in releasing bone calcium stores; also recorded: neither PP-48 nor AS-51 demonstrate any appreciable ability to mobilize calcium from bone | same potency as the native hormone; also recorded: bind the vitamin D receptor |  | In vivo antagonism in combination with native hormone (intestinal calcium transport) (Sprague-Dawley rats [1]; [6]): no antagonism was observed; Concentrations showing inhibition of cellular differentiation (HL-60 cells; antagonist mode): 10^−8-10^−7 M; Inhibition of native hormone-induced HL-60 differentiation (HL-60 cells; combined with 1,25(OH)2D3): potent inhibitor of the native hormone; also recorded: antagonistic activity; HL-60 potency relative to CN-67 (ratio of relative activities) (HL-60 cells; versus CN-67): ≈ 0.03; HL-60 potency relative to OU-72 (ratio of relative activities) (HL-60 cells; versus OU-72): ≈ 0.007; HL-60 Differentiation, antagonism (HL-60 cells; [7]): Antagonistic; Concentrations showing inhibition of gene transactivation ([2]; antagonist mode): 10^−8-10^−7 M; Times less potent than native hormone in increasing transcription of the 24-hydroxylase gene ([2]; bone cells, versus 1,25(OH)2D3): ~60 times; 24-hydroxylase transcription potency relative to CN-67 (ratio of relative activities) ([2]; versus CN-67, bone cells): ≈ 3; 24-hydroxylase transcription potency relative to OU-72 (ratio of relative activities) ([2]; versus OU-72, bone cells): 2; 24OHase Transcription, antagonism [2, 7]: Antagonistic; In vivo antagonism in combination with native hormone (bone calcium mobilization) (Sprague-Dawley rats [3]; [6]): no antagonism was observed
 |  |  |  |  | C=C1C(O)CC(=CC=C2CCCC3(C)C2CCC3C(C)C=CC(OCCCC)C2(C(=O)OCCCC)CC2)CC1O [CN-67, (22E)-(24R)-24-butoxy-25-carbobutoxy-2-methylene-26,27-cyclo-22-dehydro-1α-hydroxy-19-norvitamin D3] |  |  |  |  |  |  |  |  | 1.5 | 
 |  |  |  |  | C=C1C(O)CC(=CC=C2CCCC3(C)C2CCC3C(C)C=CC(O)C2(C(=O)OCCCC)CC2)CC1O [OU-72, (22E)-(24R)-25-carbobutoxy-2-methylene-26,27-cyclo-22-dehydro-1α,24-dihydroxy-19-norvitamin D3] |  |  |  |  |  |  |  |  | 0.023 | 
30 | 2 | 0.17 | 0.6 | ≈ 11 times | C=C1[C@H](O)CC(=C/C=C2\CCC[C@]3(C)[C@@H]([C@H](C)/C=C/C(=O)C4(C(=O)CCC(C)C)CC4)CC[C@@H]23)C[C@H]1O [PP-48, (20R,22E)-2-methylene-25-(4-methylpentanoyl)-24-oxo-26,27-cyclo-22-dehydro-1α-hydroxy-19-norvitamin D3] | potency similar to that of the native hormone | increased intestinal calcium transport activity at very high doses | agonistic behavior; also recorded: active in causing HL-60 differentiation | 0.1 | no antagonistic activity | 0.1 | essentially no ability to mobilize calcium from bone; also recorded: essentially inactive in releasing bone calcium stores; also recorded: neither PP-48 nor AS-51 demonstrate any appreciable ability to mobilize calcium from bone | lower affinity relative to 1,25(OH)2D3; also recorded: lower affinity than the native hormone; also recorded: bind the vitamin D receptor |  | Intestinal calcium transport activity at moderate doses (Sprague-Dawley rats [1]; moderate doses): only PP-48 increased such transport significantly at moderate doses; 24-hydroxylase transcription activity ([2]; compound alone): agonistic behavior; also recorded: exhibits activity in 24-hydroxylase transcription, albeit reduced from the native hormone
